Measurements: the NIST ThermoML archive (doi:10.1016/j.fluid.2016.12.025)

What was measured:
[1] = 298.2 K; 101.33 kPa; Liquid; Vibrating tube method
[2] = refractive index (Na D-line) (dimensionless); settings: 298.2 K; 101.33 kPa; Liquid; Standard Abbe refractometry
[3] = xn = mol fraction of the nth substance listed; settings: 298.2 K, 101 kPa, Liquid, Vibrating tube method
[4] = refractive index (Na D-line) (dimensionless); xn = mol fraction of the nth substance listed; settings: 298.2 K, 101 kPa, Liquid, Standard Abbe refractometry

CC(C)CCO [3-methylbutan-1-ol]
Settings | mass density [kg/m3] | refractive index
[1] | 808.94 | –
[2] | – | 1.4061

CC(C)CCO [3-methylbutan-1-ol] + CCCCCCO
Settings | mass density, [3] [kg/m3] | refractive index, [4]
x1 = 0.0496 | 815.43 | 1.4154
x1 = 0.0997 | 815.12 | 1.4149
x1 = 0.2005 | 814.49 | 1.414
x1 = 0.3003 | 813.86 | 1.4131
x1 = 0.3986 | 813.22 | 1.4121
x1 = 0.4998 | 812.55 | 1.4111
x1 = 0.6001 | 811.87 | 1.4101
x1 = 0.7002 | 811.17 | 1.4091
x1 = 0.8 | 810.46 | 1.4081
x1 = 0.8998 | 809.73 | 1.4069
x1 = 0.9504 | 809.35 | 1.4064

CC(C)CCO [3-methylbutan-1-ol] + CCCCO
Settings | mass density, [3] [kg/m3] | refractive index, [4]
x2 = 0.0498 | 808.87 | 1.4056
x2 = 0.0999 | 808.78 | 1.4053
x2 = 0.1999 | 808.58 | 1.4045
x2 = 0.3 | 808.35 | 1.4037
x2 = 0.4 | 808.09 | 1.4029
x2 = 0.4999 | 807.81 | 1.402
x2 = 0.6016 | 807.5 | 1.4009
x2 = 0.7015 | 807.16 | 1.3998
x2 = 0.7999 | 806.8 | 1.3988
x2 = 0.9007 | 806.41 | 1.3981
x2 = 0.9506 | 806.21 | 1.3978

CC(C)CCO [3-methylbutan-1-ol] + CCCCOC(C)=O
Settings | mass density, [3] [kg/m3] | refractive index, [4]
x2 = 0.0497 | 812.53 | 1.4049
x2 = 0.104 | 816.52 | 1.4039
x2 = 0.1998 | 823.52 | 1.4021
x2 = 0.2999 | 830.68 | 1.4005
x2 = 0.3999 | 837.66 | 1.399
x2 = 0.5001 | 844.46 | 1.3976
x2 = 0.6006 | 851.08 | 1.3962
x2 = 0.7 | 857.56 | 1.395
x2 = 0.8003 | 863.93 | 1.3939
x2 = 0.9005 | 870.23 | 1.3928
x2 = 0.9466 | 873.08 | 1.3923

CCCCO [butan-1-ol]
Settings | mass density [kg/m3] | refractive index
[1] | 806.01 | –
[2] | – | 1.3973

CCCCOC(C)=O [butyl ethanoate]
Settings | mass density [kg/m3] | refractive index
[1] | 876.26 | –
[2] | – | 1.3918

CCCCOC(C)=O [butyl ethanoate] + CCCCCCO
Settings | mass density, [3] [kg/m3] | refractive index, [4]
x1 = 0.0503 | 818.79 | 1.4144
x1 = 0.1001 | 821.75 | 1.4131
x1 = 0.2012 | 827.7 | 1.4104
x1 = 0.3007 | 833.61 | 1.4078
x1 = 0.4001 | 839.54 | 1.4053
x1 = 0.4999 | 845.54 | 1.4029
x1 = 0.6004 | 851.63 | 1.4005
x1 = 0.6991 | 857.64 | 1.3982
x1 = 0.8003 | 863.85 | 1.396
x1 = 0.8953 | 869.76 | 1.3939
x1 = 0.9452 | 872.86 | 1.3929

CCCCCCO [hexan-1-ol]
Settings | mass density [kg/m3] | refractive index
[1] | 815.88 | –
[2] | – | 1.4161

CCCCCCO [hexan-1-ol] + CCCCO
Settings | mass density, [3] [kg/m3] | refractive index, [4]
x2 = 0.0543 | 815.53 | 1.4148
x2 = 0.099 | 815.22 | 1.4142
x2 = 0.2042 | 814.42 | 1.4126
x2 = 0.2993 | 813.64 | 1.4111
x2 = 0.4052 | 812.7 | 1.4094
x2 = 0.4994 | 811.8 | 1.4078
x2 = 0.5938 | 810.85 | 1.406
x2 = 0.7005 | 809.72 | 1.4038
x2 = 0.8004 | 808.58 | 1.4017
x2 = 0.9003 | 807.35 | 1.3997
x2 = 0.9499 | 806.7 | 1.3985
